Broadly, the EC50 is the midpoint of the concentration-response curve. A word on the IC50: it is the concentration that inhibits the measured activity by half.

The target of one data set is T1, hEP4/Gqs5 (Homo sapiens, UniProt P35408).
T1 construct: expressed in transfected cells; host or cells: HEK-293 (EBNA)
The data set is described as follows: FLIPR calcium signal, hEP4/Gqs5. The class given is cell-based. Conditions: HEK-293 (EBNA) cells, read-out: FUNCTIONAL EC50 HEP4. Here is the method:
(§1) HEK-293 (EBNA) cells, stably expressing one type or subtype of recombinant human prostaglandin receptors (prostaglandin receptors expressed: hDP/Gqs5; hEP1; hEP2/Gqs5; hEP3A/Gqi5; hEP4/Gqs5; hFP; hIP; hTP), were cultured in 100 mm culture dishes in high-glucose DMEM medium containing 10% fetal bovine serum, 2 mM 1-glutamine, 250 μg/ml geneticin (G418) and 200 μg/ml hygromycin B as selection markers, and 100 units/ml penicillin G, 100 μg/ml streptomycin and 0.25 μg/ml amphotericin B. • (b) Calcium Signal Studies on the FLIPR™
(§2) Cells were seeded at a density of 5×10^4 cells per well in Biocoat® Poly-D-lysine-coated black-wall, clear-bottom 96-well plates (Becton-Dickinson) and allowed to attach overnight in an incubator at 37° C. Cells were then washed two times with HBSS-HEPES buffer (Hanks Balanced Salt Solution without bicarbonate and phenol red, 20 mM HEPES, pH 7.4) using a Denley Cellwash plate washer (Labsystems). After 45 minutes of dye-loading in the dark, using the calcium-sensitive dye Fluo-4 AM at a final concentration of 2 μM, plates were washed four times with HBSS-HEPES buffer to remove excess dye leaving 100 μl in each well. Plates were re-equilibrated to 37° C. for a few minutes.
(§3) Cells were excited with an Argon laser at 488 nm, and emission was measured through a 510–570 nm bandwidth emission filter (FLIPR™, Molecular Devices, Sunnyvale, Calif.). Drug solution was added in a 50 μl volume to each well to give the desired final concentration. The peak increase in fluorescence intensity was recorded for each well. On each plate, four wells each served as negative (HBSS-HEPES buffer) and positive controls (standard agonists: BW245C (hDP); PGE2 (hEP1; hEP2/Gqs5; hEP3A/Gqi5; hEP4/Gqs5); PGF2α (hFP); carbacyclin (hIP); U46619 (hTP), depending on receptor). The peak fluorescence change in each drug-containing well was then expressed relative to the controls.
(§4) Compounds were tested in a high-throughput (HTS) or concentration-response (CoRe) format. In the HTS format, forty-four compounds per plate were examined in duplicates at a concentration of 10^−5 M. To generate concentration-response curves, four compounds per plate were tested in duplicates in a concentration range between 10^−5 and 10^−11 M. The duplicate values were averaged. In either, HTS or CoRe format each compound was tested on at least 3 separate plates using cells from different passages to give an n≧3.

The subject of data set [1] is Beagle dogs. The data set is described as follows: Ocular surface hyperemia in dogs. The format is in vivo. The settings on record: dog, topical, Conc. 0.1%; score: trace 0.5, mild 1, moderate 2, severe 3. Here is the method:
(§5) • Intraocular Pressure (IOP) Intraocular pressure studies in dogs involved pneumatonometry performed in conscious, Beagle dogs of both sexes (10–15 kg). The animals remained conscious throughout the study and were gently restrained by hand. Drugs were administered topically to one eye as a 25 μL volume drop, the other eye received 25 μL vehicle (0.1% polysorbate 80:10 mM TRIS) as a control. Proparacaine (0.1%) was used for corneal anesthesia during tonometry. Intraocular pressure was determined just before drug administration and at 2, 4 and 6 hr thereafter on each day of the 5 day study. Drug was administered immediately after the first IOP reading. • An analogous procedure was carried out with cynomolgus monkeys with measurements at 2, 4, 6, and 24 hours after a single dose. • Pupil Diameter • Dog pupil diameter was measured using an optistick (a mm ruler which included half-circle references of standard widths (mm) for reference. Gently restraining the dog by hand, pupil diameter was determined by matching a half-circle to the pupil in normal room light. In dogs with very dark pupils a specialized penlight was used, but only very briefly to avoid pupil constriction. Pupil diameter was measured at the same time as IOP and hyperemia. • Ocular Surface Hyperemia • Ocular surface hyperemia was visually assessed and scored according to a system typically used clinically.
• Ocular surface hyperemia was evaluated at the same time points as intraocular pressure measurement. It should be noted that untreated dog eyes frequently have a pink/red tone. Thus, values of trace or even mild are not necessarily out of the normal range.

A further data set deals with T2, HEP4 (Homo sapiens, UniProt P35408).
T2 construct: expressed in transfected cells; host or cells: HEK-293
T2 sequence (P35408 whole entry): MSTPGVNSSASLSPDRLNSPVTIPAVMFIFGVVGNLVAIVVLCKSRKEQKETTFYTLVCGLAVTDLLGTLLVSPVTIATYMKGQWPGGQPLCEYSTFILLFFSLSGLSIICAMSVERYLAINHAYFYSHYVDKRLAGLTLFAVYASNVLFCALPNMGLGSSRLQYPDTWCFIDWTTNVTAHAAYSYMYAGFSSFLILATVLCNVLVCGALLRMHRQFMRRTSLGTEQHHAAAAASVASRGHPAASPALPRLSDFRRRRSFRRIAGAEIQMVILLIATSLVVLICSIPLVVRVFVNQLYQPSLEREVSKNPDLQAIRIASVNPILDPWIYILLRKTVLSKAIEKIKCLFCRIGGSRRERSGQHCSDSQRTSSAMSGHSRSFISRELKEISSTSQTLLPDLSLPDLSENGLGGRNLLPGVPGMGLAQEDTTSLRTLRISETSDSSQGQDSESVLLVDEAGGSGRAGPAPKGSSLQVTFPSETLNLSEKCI
The experiment in a line: Radioligand binding, EP4 receptor. The settings on record: [3H]PGE2 5 nM, HEK-293 membranes. The procedure: (§6) HEK-293 cells stably expressing the human or feline FP receptor, or EP1, EP2, or EP4 receptors were washed with TME buffer, scraped from the bottom of the flasks, and homogenized for 30 sec using a Brinkman PT 10/35 polytron. TME buffer was added to achieve a final 40 ml volume in the centrifuge tubes (the composition of TME is 100 mM TRIS base, 20 mM MgCl2, […]; 10N HCl is added to achieve a pH of 7.4).
(§7) The cell homogenate was centrifuged at 19000 r.p.m. for 20 min at 4° C. using a Beckman Ti-60 rotor. The resultant pellet was resuspended in TME buffer to give a final 1 mg/ml protein concentration, as determined by Biorad assay. Radioligand binding competition assays vs. [^3H-]17-phenyl PGF2α (5 nM) were performed in a 100 μl volume for 60 min. Binding reactions were started by adding plasma membrane fraction. The reaction was terminated by the addition of 4 ml ice-cold TRIS-HCl buffer and rapid filtration through glass fiber GF/B filters using a Brandel cell harvester. The filters were washed 3 times with ice-cold buffer and oven dried for one hour. Non-specific binding was determined with 10 uM unlabeled 17-phenyl PGF2α.
(§8) [^3H-] PGE2 (5 nM; specific activity 180 Ci mmol) was used as the radioligand for EP receptors. Binding studies employing EP1, EP2, EP3, EP4 were performed in duplicate in at least three separate experiments. A 200 μl assay volume was used. Incubations were for 60 min at 25° C. and were terminated by the addition of 4 ml of ice-cold 50 mM TRIS-HCl, followed by rapid filtration through Whatman GF/B filters and three additional 4 ml washes in a cell harvester (Brandel). Non-specific binding determined with 10^−5M of unlabeled PGE2.

Data set [2] concerns Beagle dogs. The data set is described as follows: Intraocular pressure in dogs (pneumatonometry). The settings on record: dog, topical 25 μL drop, Conc. 0.1%, 5 day study. The format is in vivo. The procedure:
as §5

The target in another data set is T3, hIP (Homo sapiens, UniProt P43119).
T3 construct: expressed in transfected cells; host or cells: HEK-293 (EBNA)
T3 sequence (P43119 whole entry): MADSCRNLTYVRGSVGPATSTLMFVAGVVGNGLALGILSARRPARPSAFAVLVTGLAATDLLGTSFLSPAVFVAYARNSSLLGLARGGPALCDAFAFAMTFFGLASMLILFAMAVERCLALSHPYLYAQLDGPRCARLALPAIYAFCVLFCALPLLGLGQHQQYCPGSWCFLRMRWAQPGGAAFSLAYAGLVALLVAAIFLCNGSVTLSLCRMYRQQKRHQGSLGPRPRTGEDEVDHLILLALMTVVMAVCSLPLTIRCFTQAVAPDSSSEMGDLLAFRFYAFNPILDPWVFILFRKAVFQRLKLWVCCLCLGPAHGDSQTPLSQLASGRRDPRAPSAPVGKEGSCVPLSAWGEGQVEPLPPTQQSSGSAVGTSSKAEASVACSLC
The experiment in a line: FLIPR calcium signal, hIP. The format is cell-based. The settings on record: HEK-293 (EBNA) cells, read-out: FUNCTIONAL EC50 HIP. The procedure:
as §1
Cells were seeded at a density of 5×10^4 cells per well in Biocoat® Poly-D-lysine-coated black-wall, clear-bottom 96-well plates (Becton-Dickinson) and allowed to attach overnight in an incubator at 37° C. Cells were then washed two times with HBSS-HEPES buffer (Hanks Balanced Salt Solution without bicarbonate and phenol red, 20 mM HEPES, pH 7.4) using a Denley Cellwash plate washer (Labsystems). […]
Cells were excited with an Argon laser at 488 nm, and emission was measured through a 510–570 nm bandwidth emission filter (FLIPR™, Molecular Devices, Sunnyvale, Calif.). […] The peak increase in fluorescence intensity was recorded for each well. […] The peak fluorescence change in each drug-containing well was then expressed relative to the controls. […]

The target of another data set is T4, hEP3A/Gqi5 (Homo sapiens, UniProt P43115).
T4 construct: expressed in transfected cells; host or cells: HEK-293 (EBNA)
T4 sequence (P43115 1-390): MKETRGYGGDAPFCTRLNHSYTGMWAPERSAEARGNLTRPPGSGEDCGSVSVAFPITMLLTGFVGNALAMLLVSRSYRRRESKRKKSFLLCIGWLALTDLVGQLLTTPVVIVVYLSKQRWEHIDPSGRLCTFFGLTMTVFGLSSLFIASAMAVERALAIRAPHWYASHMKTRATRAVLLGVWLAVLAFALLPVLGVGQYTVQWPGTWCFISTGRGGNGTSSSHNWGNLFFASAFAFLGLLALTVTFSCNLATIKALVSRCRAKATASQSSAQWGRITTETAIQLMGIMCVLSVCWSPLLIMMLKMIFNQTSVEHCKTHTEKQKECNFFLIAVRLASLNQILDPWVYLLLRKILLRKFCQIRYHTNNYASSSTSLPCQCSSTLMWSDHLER
The data set is described as follows: FLIPR calcium signal, hEP3A/Gqi5. The class given is cell-based. Conditions: HEK-293 (EBNA) cells, read-out: FUNCTIONAL EC50 HEP3A. Here is the method: as §1, §2, §3, §4

For the next data set, the target named is T5, hTP (Homo sapiens, UniProt P21731).
T5 construct: expressed in transfected cells; host or cells: HEK-293 (EBNA)
T5 sequence (P21731 1-343): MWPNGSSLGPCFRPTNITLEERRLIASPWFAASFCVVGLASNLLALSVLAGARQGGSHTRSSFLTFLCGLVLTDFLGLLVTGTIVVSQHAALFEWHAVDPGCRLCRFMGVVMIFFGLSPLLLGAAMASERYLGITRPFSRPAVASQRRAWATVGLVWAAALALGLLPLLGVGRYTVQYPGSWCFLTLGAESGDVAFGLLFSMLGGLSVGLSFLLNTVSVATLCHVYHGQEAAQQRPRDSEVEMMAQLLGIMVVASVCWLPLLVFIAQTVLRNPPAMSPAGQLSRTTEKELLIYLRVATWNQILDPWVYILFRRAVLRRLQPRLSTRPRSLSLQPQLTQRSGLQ
The data set is described as follows: FLIPR calcium signal, hTP. The settings on record: HEK-293 (EBNA) cells, read-out: FUNCTIONAL EC50 HTP. The format is cell-based. Here is the method:
as §1, §2, §3, §4

For a further data set, the target named is T6, HEP2 (Homo sapiens, UniProt P43116).
T6 construct: expressed in transfected cells; host or cells: HEK-293
T6 sequence (P43116 whole entry): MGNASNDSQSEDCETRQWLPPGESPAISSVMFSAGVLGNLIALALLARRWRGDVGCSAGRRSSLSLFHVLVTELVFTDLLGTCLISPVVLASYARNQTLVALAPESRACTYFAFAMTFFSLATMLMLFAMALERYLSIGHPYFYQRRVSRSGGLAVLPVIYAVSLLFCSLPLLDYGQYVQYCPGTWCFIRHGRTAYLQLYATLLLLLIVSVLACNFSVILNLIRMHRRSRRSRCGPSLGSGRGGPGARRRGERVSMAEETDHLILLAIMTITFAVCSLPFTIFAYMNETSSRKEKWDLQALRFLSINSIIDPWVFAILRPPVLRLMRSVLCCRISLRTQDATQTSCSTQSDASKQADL
The data set is described as follows: Radioligand binding, EP2 receptor. The settings on record: [3H]PGE2 5 nM, HEK-293 membranes. Here is the method:
as §6, §7, §8

The target in a further data set is T7, hEP2/Gqs5 (Homo sapiens, UniProt P43116).
T7 construct: expressed in transfected cells; host or cells: HEK-293 (EBNA)
T7 sequence (P43116 whole entry): as above
The experiment in a line: FLIPR calcium signal, hEP2/Gqs5. The format is cell-based. The settings on record: HEK-293 (EBNA) cells, read-out: FUNCTIONAL EC50 HEP2. Here is the method: as §1, §2, §3
Compounds were tested in a high-throughput (HTS) or concentration-response (CoRe) format. […]

A further data set has as its target T8, HEP3D (Homo sapiens, UniProt P43115).
T8 sequence (P43115 1-374 isoform P43115-4): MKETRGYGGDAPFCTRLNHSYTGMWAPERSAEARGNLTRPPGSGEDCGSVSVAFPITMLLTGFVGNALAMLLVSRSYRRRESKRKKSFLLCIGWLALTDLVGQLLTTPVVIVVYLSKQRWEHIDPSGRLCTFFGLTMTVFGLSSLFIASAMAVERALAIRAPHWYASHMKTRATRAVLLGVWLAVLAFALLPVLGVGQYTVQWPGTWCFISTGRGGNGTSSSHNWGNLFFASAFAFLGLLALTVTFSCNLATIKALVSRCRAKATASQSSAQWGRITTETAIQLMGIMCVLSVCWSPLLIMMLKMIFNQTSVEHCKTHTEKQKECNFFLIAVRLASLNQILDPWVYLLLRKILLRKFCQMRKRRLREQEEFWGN
The experiment in a line: Radioligand binding, EP3 receptor. Conditions: [3H]PGE2 5 nM. The procedure: as §6, §7, §8

T1 sequence (P35408 whole entry): as the sequence (P35408 whole entry) above

Regarding `O=C(O)CSCCCS[C@H]1C(=O)C[C@@H](CO)[C@@H]1/C=C/C(O)CCc1ccc2ccccc2c1` (stereo partly drawn) [Compound 141b, {3-[(1R,2S,3R)-3-Hydroxymethyl-2-((E)-3-hydroxy-5-naphthalen-2-yl-pent-1-enyl)-5-oxo-cyclopentylsulfanyl]-propylsulfanyl}-acetic acid], on hEP4/Gqs5, the EC50 turned out to be 219 nM. For the same molecule, in the data set on Beagle dogs [1], the Max hyperemia worked out at 0.7. The molecule further yielded an IC50 on HEP4 of 400 nM. Besides, the “Max. ΔIOP” value in the data set on Beagle dogs [2] is reported as −1.6 mm Hg.
As for `COC(=O)CSCCCS[C@H]1C(=O)C[C@@H](CO)[C@@H]1/C=C/C(O)CCc1ccc2ccccc2c1` (single isomer, unassigned) [drawing 39], the EC50 at hEP4/Gqs5 was 1860 nM; on hIP it was > 10000 nM. Also, the IC50 at HEP4 was found to be 140 nM.
With `O=C(O)CSCCCS[C@H]1C(=O)CC[C@@H]1/C=C/C(O)CCc1ccc2ccccc2c1` (single isomer, unassigned) [Compound 153], the EC50 at hEP4/Gqs5 was 0.3 nM; at hEP3A/Gqi5 it was > 10000 nM; on hTP, > 10000 nM. The Max hyperemia in the data set with Beagle dogs [1] is listed as 1.8. Moreover, the IC50 on HEP4 is 140 nM; on HEP2, > 10000 nM. Also, the “Max. ΔIOP” value in the data set with Beagle dogs [2] is on record as −4.4 mm Hg.
Regarding `O=C(O)CSCCCS[C@H]1C(=O)CC[C@@H]1/C=C/C(O)Cc1csc2ccccc12` (single isomer, unassigned) [drawing 55, {3-[2-(4-Benzo[b]thiophen-3-yl-3-hydroxy-but-1-enyl)-5-oxo-cyclopentylsulfanyl]-propylsulfanyl}-acetic acid], the EC50 at hEP2/Gqs5 is > 10000 nM; on hEP4/Gqs5 it was 7240 nM; at hEP3A/Gqi5 it was > 10000 nM; on hIP it was 389 nM; on hTP, 3.7 nM. Moreover, the IC50 at HEP3D is > 10000 nM; at HEP4, 26 nM; at HEP2 it was 600 nM.
As to `O=C(O)CSCCCS[C@H]1C(=O)CC[C@@H]1/C=C/C(O)Cc1csc2ccccc12` (single isomer, unassigned) [drawing 56, {3-[2-(4-Benzo[b]thiophen-3-yl-3-hydroxy-but-1-enyl)-5-oxo-cyclopentylsulfanyl]-propylsulfanyl}-acetic acid], the EC50 at hEP2/Gqs5 is > 10000 nM; at hEP4/Gqs5 it was 6.8 nM; on hEP3A/Gqi5 it was > 10000 nM; at hTP, > 10000 nM. For the same molecule, the figures for the IC50 on HEP3D and on HEP2 were > 10000 nM and 3500 nM, respectively.

Source of the values: US7183324B2, “2,3,4-substituted cyclopentanones as therapeutic agents” (Allergan, Inc., priority 2004, dated 2007).
